Measured values: patent US20240173341A1, “COMPOSITION FOR AMELIORATING OR TREATING DEMENTIA CONTAINING 2'-FUCOSYLLACTOSE” (Advanced Protein Technologies Corp., priority 2022, published 2024)

Tests used:
[1] = tested on: TNF-α; test: Neuroinflammatory marker analysis (ELISA), TNF-α; type: in vivo, mouse; conditions: 2′-FL-administered dementia group compared to the dementia group; FIG. 12
Description: (§1) The experimental animals used herein were 24-week-old 5×FAD (Aβ plaques) Alzheimer's models. The experimental animals were raised at a temperature of 22±3° C., at a relative humidity of 30±10%, and at an illuminance of 150 to 300 Lux for a lighting period of 12 hours (08:00˜20:00), and five or less animals were raised in each polycarbonate cage. The distilled water (DW)-administered group was used as a negative control (vehicle), and a donepezil-administered group was used as a positive control. The term “dementia group” refers to 5×FAD mice administered distilled water, and the term “normal group” refers to wild-type mice administered distilled water. The concentrations of neuroinflammatory cytokines, TNF-α and IL-6 in mouse brain tissue homogenates were analyzed using enzyme-linked immunosorbent assay (ELISA).

[2] = tested on: 5×FAD (Aβ plaques) Alzheimer's models; test: Water maze test, dementia group; type: in vivo, mouse
Description: The experimental animals used herein were 24-week-old 5×FAD (Aβ plaques) Alzheimer's models. The experimental animals were raised at a temperature of 22±3° C., at a relative humidity of 30±10%, and at an illuminance of 150 to 300 Lux for a lighting period of 12 hours (08:00˜20:00), and five or less animals were raised in each polycarbonate cage. The distilled water (DW)-administered group was used as a negative control (vehicle), and a donepezil-administered group was used as a positive control. The term “dementia group” refers to 5×FAD mice administered distilled water and the term “normal group” refers to wild-type mice administered distilled water. 2′-FL was orally administered at various concentrations to wild-type and 5×FAD mouse groups for 8 weeks and then a water maze test was performed. Specifically, a circular water tank with a diameter of 150 cm and a height of 60 cm was filled to a height of 30 cm with water, and an escape platform was installed in one area of the four quadrants of the tank. During the training period, the escape platform was placed 1 cm below the surface of the water in the tank so that it was invisible, training was repeated at the identical water entry point three times a day, and recording was performed using a video tracking system (SMART v3.0 panlab SL). When the experimental animal reached the escape platform within 60 seconds, it was allowed to stay on the escape platform for 15 seconds, and when it could not find the escape platform, it was guided to the escape platform by hand and trained to stay on the escape platform alone for 20 seconds. In the probe test on the 6th day, the escape platform was removed and the experimental animals were allowed to swim freely for 60 seconds. At this time, the time (sec) to first reach the location of the escape platform and the number of target crossings were recorded (FIG. 1). FIG. 1 is a schematic diagram illustrating the water maze test method.

[3] = tested on: amyloid beta accumulated in mouse brain tissue; test: Amyloid beta accumulation analysis (thioflavin staining of cleared brain tissue); type: in vivo; conditions: for Ab number / Ab number/volume: oral, 5×FAD mice
Description: (§2) The experimental animals used herein were 24-week-old 5×FAD (Aβ plaques) Alzheimer's models. The experimental animals were raised at a temperature of 22±3° C., at a relative humidity of 30±10%, and at an illuminance of 150 to 300 Lux for a lighting period of 12 hours (08:00˜20:00), and five or less animals were raised in each polycarbonate cage.
The term “dementia group” refers to 5×FAD mice administered distilled water, and the term “normal group” refers to wild-type mice administered distilled water.
For the amyloid beta accumulated in mouse brain tissue, brain tissue over 1 mm in size was made transparent using a tissue transparency technique, stained with thioflavin, imaged in three dimensions, and then quantified as plaques for each brain region using the Imaris program.
In addition, three 1 mm-thick brain tissues were collected from each group, the volumes thereof were measured, and the total number of accumulated amyloid beta was measured.

[4] = tested on: IL-6; test: Neuroinflammatory marker analysis (ELISA), IL-6; type: in vivo, mouse; conditions: 2′-FL-administered dementia group compared to the dementia group; FIG. 13
Description: as §1

[5] = tested on: 5×FAD (Aβ plaques) Alzheimer's models; test: Y-maze test; type: in vivo, mouse; conditions: 5×FAD mice, oral 8 weeks, all concentrations, compared to the dementia group; n=8~12, FIG. 6
Description: as §2
The distilled water (DW)-administered group was used as a negative control (vehicle), and a donepezil-administered group was used as a positive control. The term “dementia group” refers to 5×FAD mice administered distilled water and the term “normal group” refers to wild-type mice administered distilled water. […]
Specifically, the arms of the Y-maze were randomly designated as A, B, and C, the mouse was placed on one arm and allowed to move freely for 5 minutes, and then the arm where the mouse entered was recorded. This record was limited to cases where the tail thereof completely entered, and cases where it entered the same arm again were also recorded (FIG. 5). […]
The case where the mouse entered three different arms one after another was given one point (actual alteration). Alteration behavior is defined as a case where the mouse enters all of three arms in turn and the result was calculated in accordance with Equation 1 below (maximum change: total number of entries—2).

[6] = tested on: phosphorylated tau protein; test: Tau protein hyperphosphorylation analysis (IHC); type: in vivo, mouse
Description: The experimental animals used herein were 24-week-old 5×FAD (Aβ plaques) Alzheimer's models. The experimental animals were raised at a temperature of 22±3° C., at a relative humidity of 30±10%, and at an illuminance of 150 to 300 Lux for a lighting period of 12 hours (08:00˜20:00), and five or less animals were raised in each polycarbonate cage. The distilled water (DW)-administered group was used as a negative control (vehicle), and a donepezil-administered group was used as a positive control. The term “dementia group” refers to 5×FAD mice administered distilled water, and the term “normal group” refers to wild-type mice administered distilled water. Hyperphosphorylation (p-tau) of tau protein was analyzed through image observation based on immunohistochemistry (IHC) using an antibody that detects tau protein expressed in mouse brain tissue and phosphorylated tau protein.

[7] = tested on: wild-type mice; test: Water maze test, normal group; type: in vivo, mouse; conditions: oral 8 weeks, compared to distilled water (vehicle), FIGS. 2 and 3
Description: The distilled water (DW)-administered group was used as a negative control (vehicle), and a donepezil-administered group was used as a positive control. The term “dementia group” refers to 5×FAD mice administered distilled water and the term “normal group” refers to wild-type mice administered distilled water. 2′-FL was orally administered at various concentrations to wild-type and 5×FAD mouse groups for 8 weeks and then a water maze test was performed. Specifically, a circular water tank with a diameter of 150 cm and a height of 60 cm was filled to a height of 30 cm with water, and an escape platform was installed in one area of the four quadrants of the tank. During the training period, the escape platform was placed 1 cm below the surface of the water in the tank so that it was invisible, training was repeated at the identical water entry point three times a day, and recording was performed using a video tracking system (SMART v3.0 panlab SL). When the experimental animal reached the escape platform within 60 seconds, it was allowed to stay on the escape platform for 15 seconds, and when it could not find the escape platform, it was guided to the escape platform by hand and trained to stay on the escape platform alone for 20 seconds. […] At this time, the time (sec) to first reach the location of the escape platform and the number of target crossings were recorded (FIG. 1). […]

[8] = 2′-FL 300 group, 1st brain tissue
[9] = 2′-FL 300 group, 2nd brain tissue
[10] = 2′-FL 300 group, 3rd brain tissue
[11] = 2′-FL 600 group, 1st brain tissue
[12] = 2′-FL 600 group, 2nd brain tissue
[13] = 2′-FL 600 group, 3rd brain tissue
[14] = 2′-FL 1200 group, 1st brain tissue
[15] = 2′-FL 1200 group, 2nd brain tissue
[16] = 2′-FL 1200 group, 3rd brain tissue

Q: Which “concentration of TNF-α” value [1] does the source give for 2′-fucosyllactose [2′-FL] here?
A: significantly decreased

Q: And the “arrival route to the escape platform” value ([2]; 5th day of water maze training, 2′-FL-administered dementia group compared to the dementia group, FIG. 4)?
A: simplified

Q: What about the “spatial memory through training” value ([2]; all concentrations, 2′-FL-administered dementia group compared to the dementia group) of the same substance?
A: significantly improved spatial memory

Q: And the “time to arrive at the escape platform during the water maze training period” value ([2]; dementia group (5×FAD mice), oral 8 weeks, compared to distilled water (vehicle), FIGS. 2 and 3)?
A: reduced the time to arrive at the escape platform

Q: What about the Ab number [3, 8] of the same substance?
A: 23900

Q: What about the Ab number/volume [3, 8] of the same substance?
A: 8628

Q: What about the Ab number [3, 9] of the same substance?
A: 26900

Q: What about the Ab number/volume [3, 9] of the same substance?
A: 9642

Q: What about the Ab number [3, 10] of the same substance?
A: 42000

Q: And the Ab number/volume [3, 10]?
A: 12174

Q: What about the Ab number ([3]; 2′-FL 300 group, Avr. of three brain tissues) of the same substance?
A: 30933

Q: And the Ab number/volume ([3]; 2′-FL 300 group, Avr. of three brain tissues, *p ≤ 0.05 vs. Vehicle)?
A: 10148*

Q: And the Ab number [3, 11]?
A: 32000

Q: And the Ab number/volume [3, 11]?
A: 11722

Q: What about the Ab number [3, 12] of the same substance?
A: 38400

Q: What about the Ab number/volume [3, 12] of the same substance?
A: 11852

Q: What about the Ab number [3, 13] of the same substance?
A: 20800

Q: And the Ab number/volume [3, 13]?
A: 5762

Q: What about the Ab number ([3]; 2′-FL 600 group, Avr. of three brain tissues) of the same substance?
A: 30400

Q: What about the Ab number/volume ([3]; 2′-FL 600 group, Avr. of three brain tissues, *p ≤ 0.05 vs. Vehicle) of the same substance?
A: 9778*

Q: What about the Ab number [3, 14] of the same substance?
A: 34300

Q: What about the Ab number/volume [3, 14] of the same substance?
A: 10719

Q: And the Ab number [3, 15]?
A: 31900

Q: And the Ab number/volume [3, 15]?
A: 7800

Q: What about the Ab number [3, 16] of the same substance?
A: 37000

Q: What about the Ab number/volume [3, 16] of the same substance?
A: 12092

Q: What about the Ab number ([3]; 2′-FL 1200 group, Avr. of three brain tissues) of the same substance?
A: 34400

Q: What about the Ab number/volume ([3]; 2′-FL 1200 group, Avr. of three brain tissues, *p ≤ 0.05 vs. Vehicle) of the same substance?
A: 10203*

Q: What about the amyloid beta accumulation ([3]; brain cortex of dementia group, n=8-12, FIG. 7) of the same substance?
A: decrease in amyloid beta accumulation

Q: And the amyloid beta accumulation ([3]; brain hippocampus of dementia group, n=8-12, FIG. 8)?
A: decrease in amyloid beta accumulation

Q: And the “accumulation of amyloid beta throughout the brain” value ([3]; dementia group, three 1 mm-thick brain tissues per group, Table 1, FIG. 9)?
A: significantly inhibited

Q: And the “concentration of IL-6” value [4]?
A: significantly decreased

Q: And the “spontaneous alteration (SA)” value [5]?
A: significantly increased SA

Q: What about the “inhibition of tau protein hyperphosphorylation” value ([6]; brain cortex of dementia group, n=8~12, FIG. 10) of the same substance?
A: no significant effect

Q: And the “inhibition of tau protein hyperphosphorylation” value ([6]; brain hippocampus of dementia group, n=8~12, FIG. 11)?
A: no significant effect

Q: And the “time to arrive at the escape platform during the water maze training period” value [7]?
A: reduced the time to arrive at the escape platform
